This experiment relates to CMV reactive human PMBCs. Nature of the experiment: In vitro 2FF and anti-PD1 antibody combination in human PBMCs (IFNγ, IL12p70). The following applies: 1 μg/mL anti-PD1 (Pembrolizumab) added to co-culture of 2FF matured T-cells, DCs and CMV antigen.

Method: CMV reactive human PMBCs from a CMV positive donor (Astarte™ Biologics) were thawed, plated into a 6-well plate and cultured overnight in DC media (30% DMEM 70% X-vivo+2 mM glutamax+10% ATB serum+1% PS). The following day the supernatant was collected to isolate T-cells and the adhering cells were washed in media and then replenished with 2 mL media supplemented with IL4 (100 ng/μL) and GMCSF (200 ng/μL) per well to differentiate and proliferate the adhering monocytes into DCs. The plate was incubated for 4-5 days and then cells were moved into a T25 flask. Each time the cells were passaged (every 2-3 days) new cytokines were given. The T-cells in the supernatant were isolated using StemSep human T-cell enrichment kit (Stemcell technologies). The T-cells were then resuspended in T-cell media (RPMI+10% Fetal calf serum, 1% PS) and spilt into two T25 flasks (with or without 100-200 μM 2FF). CD3CD28 antibody coated beads (Miltenyi Biotec) (20 μL/flask) were added to activate the T-cells. After 24 h IL2 was added (100 ng/μL). Each time the cells were passaged new IL2 and 2FF were added. […]
IFNγ and IL12p70 in the supernatants from 5 day co-cultures were measured using a Lumenix assay and the concentration of each cytokine was calculated using an internal standard curve.

As to “Pembrolizumab [anti-PD1, reference compound]”, the “antigen specific response (IFNγ, IL12p70) of 2FF matured T-cells on addition of anti-PD1” value is given as “further enhances the antigen specific response”.
